Test results taken from article PMC3480206 (Future microbiology, 2012).
Converted amounts (≈) assume the structure as drawn. “Also recorded” adds a separate entry of the source. Read-outs that look alike come from different tables or passages of the source.

Columns and labels:
Mtb [1] = assay: Broth microdilution MIC against Mtb; type: cell-based, Mycobacterium tuberculosis
[2] = tested on: Mycobacterium tuberculosis H37Rv; assay: BACTEC MIC; type: cell-based; details: ATCC27294|H37RV
[3] = tested on: Mycobacteria avium, marinum, chelonae and abscessus; assay: MIC on other pathogenic Mycobacteria; type: cell-based
[4] = tested on: Mycobacteria bovis, M. bovis BCG and Mycobacteria fortuitum; type: cell-based
Mtb inside macrophages [5] = assay: Intracellular killing in Mtb-infected macrophages; type: cell-based, Mycobacterium tuberculosis; details: SQ109 with CFZ; Reddy V, Unpublished Data
[6] = tested on: Mycobacterium tuberculosis H37Rv; assay: In vitro drug interaction, checkerboard titration by 96-well microdilution; type: cell-based
[7] = tested on: Helicobacter pylori clinical isolates; assay: MIC and time-kill on Helicobacter pylori; type: cell-based
Clostridium difficile = assay: MIC on Clostridium difficile; type: cell-based; details: Clostridioides difficile
Aspergillus fumigatus = assay: MIC on Aspergillus fumigatus; type: cell-based
Candida spp. = assay: MIC on Candida spp.; type: cell-based
Cryptococcus neoformans = assay: MIC on Cryptococcus neoformans; type: cell-based
Enterococci spp. = assay: MIC on Enterococci spp.; type: cell-based
Haemophilus influenzae = assay: MIC on Haemophilus influenzae; type: cell-based
Neisseria gonorrhoeae = assay: MIC and MBC on Neisseria gonorrhoeae; type: cell-based
Streptococcus pneumoniae = assay: MIC on Streptococcus pneumoniae; type: cell-based
[8] = In vivo pairwise drug-drug interaction studies with first-line drugs; details: pairwise studies of SQ109 with INH, RIF or streptomycin in mice or rats
Mtb [9] = assay: Rapid, high-dose model of TB infection; type: in vivo, mice; details: murine model of acute infection
[10] = tested on: Salmonella–Escherichia coli; assay: Salmonella–Escherichia coli/microsome plate incorporation assay; type: cell-based; details: In vitro mutagenicity studies
[11] = Micronucleus assay in rats; details: rat, in vivo
[12] = Neurological safety assessment, rats; type: in vivo; details: 90-day oral dosing at 30, 120 and 240 mg/m^2/day
[13] = Neurological safety assessment, beagle dogs; type: in vivo; details: 90-day oral dosing at 100, 300 and 1000 mg/m^2/day
[14] = Pulmonary safety testing, beagle dogs; type: in vivo; details: single oral dosing at 75, 140 and 300 mg/m^2
[15] = Phase Ib, multiple daily doses; type: in vivo, healthy humans
[16] = in vivo
[17] = human, in vivo
Mtb inside macrophages [18] = details: cited from earlier work
[19] = tested on: Mtb gene clusters GC82 and GC120, iniBAC operon; details: cited from earlier work
Mtb [20] = details: cited from earlier work
[21] = tested on: Mycobacterium tuberculosis H37Rv; details: cited from earlier work
Mtb [22] = details: cited from earlier work; remark: listed apart in the source
Mtb [23] = details: 10 mg/kg, cited from earlier work
[24] = tested on: Mycobacterium tuberculosis H37Rv; details: mouse, in vivo; cited from earlier work
[25] = mice; cited from earlier work
[26] = rat, in vivo; cited from earlier work
[27] = rats; cited from earlier work
CYP450 2D6 and 2C19 = details: cited from earlier work
CYP3A4 = details: cited from earlier work
[28] = Phase Ia, escalating single dose; details: for mean maximum concentration: fasting human subjects
[29] = Cardiovascular safety, beagle dogs
[30] = Phase Ic, multiple daily 300 mg doses
[31] = IND-directed repeat-dose toxicology studies
[32] = PK evaluation on coadministration with second-line drugs
[33] = 300 mg with high-fat, high-calorie meal
[34] = single oral dosing at 75, 140 and 300 mg/m^2

SMILES: CC(C)=CCC/C(C)=C/CNCCNC1C2CC3CC(C2)CC1C3 (stereo not drawn) [SQ109, N-geranyl-N′-(2-adamantyl)ethane-1,2-diamine]
- MIC (Mtb [1]; Mycobacterium tuberculosis): 0.78 µg/mL (≈ 2.36 µM)
- MIC range (Mtb [1]; overall range on Mtb): 0.2 to 0.78 µg/mL
- MIC [2]: ≤ 0.2 µg/mL
- MIC [3]: 4 to 16 µg/mL (≈ 12.1 to 48.4 µM)
- activity against other Mycobacteria [4]: active
- interaction in macrophage intracellular killing assay (Mtb inside macrophages [5]): synergy
- MIC ([6]; Mycobacterium tuberculosis, H37RV, read-out: MIC Alone): 0.5 µg/mL
- in vitro interaction ([6]; SQ109 with AMK, Unpublished Data): synergy
- in vitro interaction ([6]; SQ109 with CFZ, Reddy V, Unpublished Data): synergy
- in vitro interaction ([6]; SQ109 with CM, Unpublished Data): synergy
- in vitro interaction ([6]; SQ109 with CS, Unpublished Data): additive
- in vitro interaction ([6]; SQ109 with ETA, Unpublished Data): additive
- in vitro interaction ([6]; SQ109 with KAN, Unpublished Data): additive
- in vitro interaction ([6]; SQ109 with MXF, Unpublished Data): synergy
- in vitro interaction ([6]; SQ109 with all the rifamycins, including rifapentine and rifabutin): profound synergy
- in vitro interaction ([6]; SQ109 with para-aminosalicylic acid, Unpublished Data): additive
- MIC Combination ([6]; checkerboard SQ109 + CFZ, Mtb H37Rv): 0.125 µg/mL
- bactericidal or bacteriostatic ([7]; H. pylori): bactericidal
- time–kill assays versus first-line drugs ([7]; H. pylori): better than amoxicillin and metronidazole
- MIC range ([7]; all H. pylori clinical isolates, manuscript in preparation): 2.5 to 15 µg/mL
- MIC (Clostridium difficile): 8 to 16 µg/mL (≈ 24.2 to 48.4 µM)
- MIC (Aspergillus fumigatus): 8 µg/mL (≈ 24.2 µM)
- MIC (Candida spp.): 1 to 8 µg/mL (≈ 3.03 to 24.2 µM)
- MIC (Cryptococcus neoformans): 0.25 to 4 µg/mL (≈ 0.756 to 12.1 µM)
- MIC (Enterococci spp.): 8 to 32 µg/mL (≈ 24.2 to 96.8 µM)
- MIC (Haemophilus influenzae): 1 to 32 µg/mL (≈ 3.03 to 96.8 µM)
- MBC (Neisseria gonorrhoeae): 0.038 µg/mL (≈ 0.115 µM)
- MIC (Neisseria gonorrhoeae): 0.038 µg/mL (≈ 0.115 µM)
- MIC (Streptococcus pneumoniae): 2 to 4 µg/mL (≈ 6.05 to 12.1 µM)
- in vivo drug–drug interactions or PK changes [8]: no in vivo adverse drug–drug interactions or PK changes
- efficacious dose for treatment of TB (Mtb [9]): 10 mg/kg/day
- Salmonella–Escherichia coli/microsome plate incorporation assay [10]: Negative
- Micronucleus assay in rats [11]: Negative
- Functional observational battery parameters [12]: No change
- Functional observational battery parameters [13]: No change
- Minute volume [14]: No change
- Respiratory rate [14]: No change
- Tidal volume [14]: No change
- tolerability ([15]; 75 mg daily for 14 days or 150 mg daily for 5 days then days 9 and 14): well tolerated
- serious adverse events ([15]; Phase Ib): no SAEs
- Mouse lymphoma mutation assay (Mouse lymphoma): Negative
- Segment 1: effects on male and female gamete maturation, copulatory performance, fertilization, zygote development and embryo implantation [16]: No impact
- Segment 2: effects on pregnant female and development of embryo and fetus from implantation [16]: No impact
- safety and tolerability [17]: safe and well-tolerated
- time to kill intracellular Mtb in infected macrophage assay (Mtb inside macrophages [18]; SQ109 with sutezolid): improved synergistically
- reduction of intracellular Mtb (Mtb inside macrophages [18]; at its MIC): 99%
- killing of Mtb inside macrophages relative to INH and EMB (Mtb inside macrophages [18]): equivalent to INH and superior to EMB
- Activity on Mtb gene clusters GC82 and GC120 [19]: Downregulates
- transcription of the iniBAC operon [19]: induces
- Effect on acid-fastness of Mtb (Mtb [20]): No effect
- improvement of SQ109 activity [21]: fourfold
- in vitro interaction [21]: synergistic; also recorded: additive
- incorporation into trehalose monomyclate (TMM) (Mtb [22]): increased
- incorporation of mycolic acids into the cell wall (Mtb [22]; trehalose dimycolate and arabinogalactan-bound mycolates): decreased
- weight loss of infected mice (Mtb [23]; versus untreated infected mice): significantly reduced weight loss
- efficacy in screening and chronic model of TB (Mtb [23]; mice): efficacious
- activity in model of chronic TB [24]: better activity than EMB at 100 mg/kg
- concentration in lung and spleen compared with plasma [25]: at least 45 fold
- bioavailability of SQ109 [26]: 21.4%
- tissue distribution [27]: highest concentrations of SQ109 in liver
- human CYP450 enzymes producing the four major metabolites (CYP450 2D6 and 2C19): CYP450 2D6 and 2C19
- activation of CYP450 3A4 (CYP3A4): not activated
- metabolism by CYP450 3A4 (CYP3A4): nor is it metabolized
- food effect on half-life [28, 33]: increased
- food effect on maximum serum concentration [28, 33]: decreased
- mean maximum concentration ([28]; 10-mg oral dose): 0.729 ng/mL
- mean maximum concentration ([28]; 300-mg oral dose): 20.2 ng/mL
- serious adverse events ([28]; Phase Ia, single oral doses 5-300 mg): no serious AEs
- half-life ([28]; human, serum, oral, 300 mg): 61.1 h
- Blood pressure ([29]; at 75 and 140 mg/m^2): No change
- Body weights [29, 34]: No change
- Clinical observations [29, 34]: No deaths
- Clinical pathology: hematology or clinical chemistry [29, 34]: No change
- ECG waveforms (rhythms and morphology) [29, 34]: No change
- Heart rate/ECG data [29, 34]: No change
- subjects with lung concentrations above the MIC for Mtb ([30]; 12 h after dosing, expected from plasma concentration–time profile): approximately 50%
- serious adverse events ([30]; Phase Ic, 300 mg daily for 14 days): no SAEs
- time to steady-state conditions ([30]; daily administration of 300 mg): ≤ 10 days
- lung concentration relative to SQ109 MIC ([30]; steady state, once-daily 300 mg, from preclinical plasma/lung relationship): approximately 5.8 fold
- toxicities and adverse events ([31]; 40 mg/kg/day, three animal species, except emesis in dogs): no cardiovascular, hepatic, hematologic, neurological or ocular toxicities
- NOAEL ([31]; dog, rat, nonhuman primate, in vivo): 30 to 40 mg/kg/day
- phospholipidosis ([31]; in vivo): did cause phospholipidosis
- exposure of mice to SQ109 ([32]; in the presence of CS and KAN): slightly decreased
- pharmacology profile on coadministration ([32]; mice, SQ109 and MXF coadministered): not affected
